Measured values: patent US10875874B2, “Ginkgolide B derivative and preparation method and use thereof” (Chengdu Baiyu Ginkgolide Pharmaceuticals Co., Ltd., priority 2015, dated 2020)
Marks after values point to notes of the source that are not given here.

Columns and labels:
Assay type in all cases: in vivo, rat
[1] = Weekly body weight of SHR rats
Description: (§1) 2.1 Grouping and administration of animals: 112 SHR rats (the female and male SHR rats are half and half, and the female rats are not pregnant) with the body weight of 200-250 g are taken, the rats are enabled to adapt to a laboratory for a period of 5 d, blood pressure is measured once at a day to enable the rats to adapt to the environment and detect stimulation. Then, weighing and numbering are carried out, and the SHR rats are equally divided into 14 groups randomly (each group comprises 8 rats), i.e., an SHR rat model control group, a positive control group (captopril, 27 mg/kg), a BZ large-dose group (120 mg/kg/d), a BZ small-dose group (60 mg/kg/d), a BA large-dose group (120 mg/kg/d), a BA small-dose group (60 mg/kg/d), a BL large-dose group (120 mg/kg/d), a BL small-dose group (60 mg/kg/d), a BM large-dose group (120 mg/kg/d), a BM small-dose group (60 mg/kg/d), a BD large-dose group (120 mg/kg/d), a BD small-dose group (60 mg/kg/d), a GB large-dose group (120 mg/kg/d) and a GB small-dose group (60 mg/kg/d). In addition, 8 healthy Wistar rats are taken as a normal control group. Intragastric administration is performed on the rats of each drug group separately according to the above-mentioned doses by 1 mL/100 g body weight, intragastric administration is performed on the rats of the normal control group and the rats of the SHR rat model control group with an equal volume of distilled water, and administration is performed continuously for 8 weeks.
(§2) 2.2 General state: during observation, conditions such as mind, water drinking, food intake, bowel movement, hair color, body weight and range of motion of rats are observed. Irritable degrees of the rats are divided into III levels: a level I means that the rats are free of obvious response when necks of the rats are seized; a level II means that the rats scream and startle when the necks of the rats are seized; and a level III means that the rats bite or rats of same cages frequently fight when the necks of the rats are seized.
(§3) 3.1 Influence on general state of spontaneously hypertensive rats: the rats of the normal control group are normal in food intake, drinking and motion conditions, sensitive in response, healthy and glossy in hair color, good in mental state and free of any unusual response; the rats of the SHR model group gradually present that back hair is fluffy, clustered and dim, the appetite is reduced, the body weight is reduced, the mind is dispirited and irritable, and the rats are prone to the behaviors of intense resisting, attacking and so on during administration and blood pressure detection, and irritable degrees are mostly changed to a level II and a level III from a level I; and after single administration of ginkgolide B and derivatives thereof, behavioral general state observations of rats of each group are free of obvious difference from those of the model control group.

[2] = Weekly food intake of SHR rats
Description: as §1, §2, §3

[3] = tested on: spontaneously hypertensive rats (SHR); assay: Caudal artery systolic pressure of spontaneously hypertensive rats, single administration; settings: x ± s, n = 8
Description: as §1
(§4) 2.3 Blood pressure measuring: caudal artery systolic pressure of rats is measured with a Bp-6 noninvasive blood pressure measuring system. Under the condition that the rats are calm, the systolic pressure is continuously measured for 3 times, and the average value of the measured systolic pressure is taken as a pressure measuring result. Observation indexes: (1) single-administration pressure lowering effect: blood pressure of the rats is measured before administration and blood pressure conditions are measured 30 min, 60 min, 90 min and 120 min after first administration; and (2) continuous-administration pressure lowering condition: blood pressure is separately measured 30 min after administration at 1 d, 7 d, 13 d, 19 d, 25 d, 35 d, 49 d and 56 d, the blood pressure is repeatedly measured for 3 times at a day, and the average value of obtained values is taken as a final blood pressure value.

[4] = tested on: spontaneously hypertensive rats (SHR); assay: Caudal artery systolic pressure of spontaneously hypertensive rats, 8 weeks of continuous medication; settings: x ± s, n = 8
Description: as §1, §4

[5] = 60 mg/kg/d intragastric, week 0
[6] = 60 mg/kg/d intragastric, week 1
[7] = 60 mg/kg/d intragastric, week 2
[8] = 60 mg/kg/d intragastric, week 3
[9] = 60 mg/kg/d intragastric, week 4
[10] = 60 mg/kg/d intragastric, week 5
[11] = 60 mg/kg/d intragastric, week 6
[12] = 60 mg/kg/d intragastric, week 7
[13] = 60 mg/kg/d intragastric, week 8
[14] = 120 mg/kg/d intragastric, week 0
[15] = 120 mg/kg/d intragastric, week 1
[16] = 120 mg/kg/d intragastric, week 2
[17] = 120 mg/kg/d intragastric, week 3
[18] = 120 mg/kg/d intragastric, week 4
[19] = 120 mg/kg/d intragastric, week 5
[20] = 120 mg/kg/d intragastric, week 6
[21] = 120 mg/kg/d intragastric, week 7
[22] = 120 mg/kg/d intragastric, week 8

For CC1C(=O)OC2C(O)C34C5CC(C(C)(C)C)C36C(OC(=O)C6O)OC4(C(=O)O5)C12O (stereo not shown) [GB, ginkgolide B], the Body weight [1, 5] was 230.8 g, the Body weight [1, 6] was 235.6 g and the Body weight [1, 7] was 243.1^▴ g. The Body weight [1, 8] was 250.2 g, the Body weight [1, 9] was 258.9^▴ g and the Body weight [1, 10] was 262.4 g. The Body weight [1, 11] was 268.7^▴ g, the Body weight [1, 12] was 280.6^▴▴ g and the Body weight [1, 13] was 290.1^▴▴ g. For the same compound, the Body weight [1, 14] was 231.0 g, the Body weight [1, 15] was 250.3^▴▴ g and the Body weight [1, 16] was 258.7^▴▴ g. For the same compound, the Body weight [1, 17] was 263.4^▴▴ g, the Body weight [1, 18] was 270.6^▴▴ g and the Body weight [1, 19] was 281.5^▴▴ g. For the same compound, the Body weight [1, 20] was 290.6^▴▴ g, the Body weight [1, 21] was 306.7^▴▴ g and the Body weight [1, 22] was 321.2^▴▴ g. The “Average dairy food intake” value [2, 5] was 18.6 g/day, the “Average dairy food intake” value [2, 6] was 20.1^▴ g/d and the “Average dairy food intake” value [2, 7] was 18.9^▴ g/d. The “Average dairy food intake” value [2, 8] was 17.7 g/day, the “Average dairy food intake” value [2, 9] was 18.6^▴ g/d and the “Average dairy food intake” value [2, 10] was 21.7^▴▴ g/d. The “Average dairy food intake” value [2, 11] was 23.5^▴▴ g/d, the “Average dairy food intake” value [2, 12] was 24.2^▴▴ g/d and the “Average dairy food intake” value [2, 13] was 25.4^▴▴ g/d. The “Average dairy food intake” value [2, 14] was 18.3 g/day, the “Average dairy food intake” value [2, 15] was 20.6^▴▴ g/d and the “Average dairy food intake” value [2, 16] was 19.5^▴ g/d. For the same compound, the “Average dairy food intake” value [2, 17] was 20.6^▴▴ g/d, the “Average dairy food intake” value [2, 18] was 21.4^▴▴ g/d and the “Average dairy food intake” value [2, 19] was 22.8^▴▴ g/d. The “Average dairy food intake” value [2, 20] was 24.6^▴▴ g/d, the “Average dairy food intake” value [2, 21] was 26.8^▴▴ g/d and the “Average dairy food intake” value [2, 22] was 28.2^▴▴ g/d. The Systolic pressure ([3]; 60 mg/kg intragastric single administration, 30 min) was 160.42 ± 9.56 mmHg, the Systolic pressure ([3]; 60 mg/kg intragastric single administration, 60 min) was 153.15 ± 12.51 mmHg and the Systolic pressure ([3]; 60 mg/kg intragastric single administration, 90 min) was 155.16 ± 11.26 mmHg. The Systolic pressure ([3]; 60 mg/kg intragastric single administration, 120 min) was 159.17 ± 11.63 mmHg, the Systolic pressure ([3]; 60 mg/kg intragastric single administration, before administration) was 168.41 ± 12.30 mmHg and the Systolic pressure ([3]; 120 mg/kg intragastric single administration, 30 min) was 151.46 ± 16.27 mmHg. The Systolic pressure ([3]; 120 mg/kg intragastric single administration, 60 min) was 157.54 ± 17.95 mmHg, the Systolic pressure ([3]; 120 mg/kg intragastric single administration, 90 min) was 160.26 ± 16.54 mmHg and the Systolic pressure ([3]; 120 mg/kg intragastric single administration, 120 min) was 152.21 ± 18.27 mmHg. The Systolic pressure ([3]; 120 mg/kg intragastric single administration, before administration) was 167.49 ± 13.09 mmHg, the Systolic pressure ([4]; 60 mg/kg/d intragastric continuous, 1 d, 30 min after administration) was 155.67 ± 12.36 mmHg and the Systolic pressure ([4]; 60 mg/kg/d intragastric continuous, 7 d, 30 min after administration) was 153.46 ± 10.74 mmHg. It also gave a Systolic pressure ([4]; 60 mg/kg/d intragastric continuous, 13 d, 30 min after administration) of 156.25 ± 10.84 mmHg, a Systolic pressure ([4]; 60 mg/kg/d intragastric continuous, 19 d, 30 min after administration) of 150.68 ± 9.78 mmHg and a Systolic pressure ([4]; 60 mg/kg/d intragastric continuous, 25 d, 30 min after administration) of 155.65 ± 10.57 mmHg. For the same compound, the Systolic pressure ([4]; 60 mg/kg/d intragastric continuous, 35 d, 30 min after administration) was 154.25 ± 10.74 mmHg, the Systolic pressure ([4]; 60 mg/kg/d intragastric continuous, 49 d, 30 min after administration) was 150.56 ± 10.42 mmHg and the Systolic pressure ([4]; 60 mg/kg/d intragastric continuous, 56 d, 30 min after administration) was 153.85 ± 9.24 mmHg. For the same compound, the Systolic pressure ([4]; 60 mg/kg/d intragastric continuous, before administration) was 168.41 ± 12.30 mmHg, the Systolic pressure ([4]; 120 mg/kg/d intragastric continuous, 1 d, 30 min after administration) was 150.63 ± 10.25 mmHg and the Systolic pressure ([4]; 120 mg/kg/d intragastric continuous, 7 d, 30 min after administration) was 148.54 ± 9.27 mmHg. It also gave a Systolic pressure ([4]; 120 mg/kg/d intragastric continuous, 13 d, 30 min after administration) of 141.74 ± 8.26 mmHg, a Systolic pressure ([4]; 120 mg/kg/d intragastric continuous, 19 d, 30 min after administration) of 140.95 ± 12.04 mmHg and a Systolic pressure ([4]; 120 mg/kg/d intragastric continuous, 25 d, 30 min after administration) of 147.46 ± 9.85 mmHg. The Systolic pressure ([4]; 120 mg/kg/d intragastric continuous, 35 d, 30 min after administration) was 142.33 ± 10.38 mmHg, the Systolic pressure ([4]; 120 mg/kg/d intragastric continuous, 49 d, 30 min after administration) was 138.79 ± 11.58 mmHg and the Systolic pressure ([4]; 120 mg/kg/d intragastric continuous, 56 d, 30 min after administration) was 135.28 ± 7.48 mmHg. For the same compound, the Systolic pressure ([4]; 120 mg/kg/d intragastric continuous, before administration) was 167.49 ± 13.09 mmHg.
